Values of other authors as cited in US20070191365A1, “3,4,6-Substituted pyridazines for treating neuropathic pain and associated syndromes” (priority 2006, published 2007).

Tested on: animal model of Alzheimer's disease
Details: Ranaivo et al., J Neurosci. (2006) 26:662-670

c1ccc(-c2cc(-c3ccccc3)c(N3CCN(c4ncccn4)CC3)nn2)cc1 [4,6-diphenyl-3-(4-(pyrimidin-2-yl)piperazin-1-yl)pyridazine]
efficacy in an animal model of Alzheimer's disease: exhibits efficacy
